# Test results published in article PMC6128713 (Saudi Pharmaceutical Journal : SPJ, 2018).
# Read-outs that look alike come from different tables or passages of the source.
# Legend:
# [1] = tested on: glutamate-induced 45Ca2+ uptake into synaptosomes of rat brain cortex; assay: Effect on glutamate-induced 45Ca2+ uptake into synaptosomes of rat brain cortex; format: biochemical, Wistar rats; conditions: for Percentage 45Ca2+ of Control (Control – 100%): 200 μM glutamate, 5 min, 37 °C
# [2] = format: physicochemical
compound,measurement,setting,value
"CN1CCc2c(c3ccccc3n2CCc2n[nH]c(=S)n2C)C1 [Compound I, 4-Methyl-5-[2-(2-methyl-1,2,3,4-tetrahydropyrido[4,3-b]indol-5-yl)ethyl]-2,4-dihydro[1,2,4]triazole-3-thione]",Percentage 45Ca2+ of Control (Control – 100%),[1]; compound 0.1 μM,90.5 ± 5.1%
same,Percentage 45Ca2+ of Control (Control – 100%),[1]; compound 0.5 μM,94.8 ± 3.0%
same,Percentage 45Ca2+ of Control (Control – 100%),[1]; compound 1 μM,94.5 ± 11.8%
same,Percentage 45Ca2+ of Control (Control – 100%),[1]; compound 5 μM,80.0 ± 3.0%
same,Percentage 45Ca2+ of Control (Control – 100%),[1]; compound 10 μM,69.9 ± 4.4%
same,Percentage 45Ca2+ of Control (Control – 100%),[1]; compound 50 μM,90.0 ± 6.1%
same,Percentage 45Ca2+ of Control (Control – 100%),[1]; compound 100 μM,104.2 ± 12.8%
same,"effect on glutamate-induced calcium ion uptake, in words",[1]; concentration of 0.1–1 μM,did not affect
same,"effect on glutamate-induced calcium ion uptake, in words",[1]; concentrations of 5–50 μM,inhibited calcium ion uptake
same,mole fraction solubility (x),"[2]; 1-octanol, 293.15 K",2.16 x · 10^4
same,"A, parameter of the correlation equation lnx=A-B/T","[2]; 1-octanol, 293.15–313.15 K",5.83 ± 0.11
same,"B, parameter of the correlation equation lnx=A-B/T","[2]; 1-octanol, 293.15–313.15 K",4179 ± 45
same,mole fraction solubility (x),"[2]; 1-octanol, 298.15 K",2.74 x · 10^4
same,"ΔGsol0, standard molar dissolution Gibbs energy","[2]; 1-octanol, 298.15 K",4.85 kcal/mol
same,"ΔHsol0, standard molar dissolution enthalpy","[2]; 1-octanol, 298.15 K",8.29 kcal/mol
same,"ΔSsol0, standard molar dissolution entropy","[2]; 1-octanol, 298.15 K",69.9 J/mol⋅K
same,mole fraction solubility (x),"[2]; 1-octanol, 303.15 K",3.48 x · 10^4
same,mole fraction solubility (x),"[2]; 1-octanol, 308.15 K",4.28 x · 10^4
same,mole fraction solubility (x),"[2]; 1-octanol, 313.15 K",5.40 x · 10^4
same,mole fraction solubility (x),"[2]; Buffer pH 7.4, 293.15 K",1.69 x · 10^6
same,"A, parameter of the correlation equation lnx=A-B/T","[2]; Buffer pH 7.4, 293.15–313.15 K",−7.76 ± 0.04
same,"B, parameter of the correlation equation lnx=A-B/T","[2]; Buffer pH 7.4, 293.15–313.15 K",1649 ± 12
same,mole fraction solubility (x),"[2]; Buffer pH 7.4, 298.15 K",1.86 x · 10^6
same,"ΔGsol0, standard molar dissolution Gibbs energy","[2]; Buffer pH 7.4, 298.15 K",7.82 kcal/mol
same,"ΔHsol0, standard molar dissolution enthalpy","[2]; Buffer pH 7.4, 298.15 K",3.27 kcal/mol
same,"ΔSsol0, standard molar dissolution entropy","[2]; Buffer pH 7.4, 298.15 K",-63.73 J/mol⋅K
same,mole fraction solubility (x),"[2]; Buffer pH 7.4, 303.15 K",2.04 x · 10^6
same,mole fraction solubility (x),"[2]; Buffer pH 7.4, 308.15 K",2.23 x · 10^6
same,mole fraction solubility (x),"[2]; Buffer pH 7.4, 313.15 K",2.42 x · 10^6
same,mole fraction solubility (x),"[2]; Hexane, 293.15 K",7.96 x · 10^6
same,"A, parameter of the correlation equation lnx=A-B/T","[2]; Hexane, 293.15–313.15 K",−1.25 ± 0.18
same,"B, parameter of the correlation equation lnx=A-B/T","[2]; Hexane, 293.15–313.15 K",3073 ± 39
same,mole fraction solubility (x),"[2]; Hexane, 298.15 K",9.41 x · 10^6
same,"ΔGsol0, standard molar dissolution Gibbs energy","[2]; Hexane, 298.15 K",6.84 kcal/mol
same,"ΔHsol0, standard molar dissolution enthalpy","[2]; Hexane, 298.15 K",6.12 kcal/mol
same,"ΔSsol0, standard molar dissolution entropy","[2]; Hexane, 298.15 K",-6.7 J/mol⋅K
same,mole fraction solubility (x),"[2]; Hexane, 303.15 K",11.41 x · 10^6
same,mole fraction solubility (x),"[2]; Hexane, 308.15 K",13.26 x · 10^6
same,mole fraction solubility (x),"[2]; Hexane, 313.15 K",15.50 x · 10^6
same,increase of solubility in hexane over buffer solution,[2]; standard temperature,5 times
"Cc1ccc2c(c1)c1c(n2CCc2ccc(C)nc2)CCN(C)C1 [Dimebon, reference compound]",Percentage 45Ca2+ of Control (Control – 100%),[1]; compound 0.1 μM,120.5 ± 3.3%
same,Percentage 45Ca2+ of Control (Control – 100%),[1]; compound 0.5 μM,64.4 ± 12.4%
same,Percentage 45Ca2+ of Control (Control – 100%),[1]; compound 1 μM,61.3 ± 8.1%
same,Percentage 45Ca2+ of Control (Control – 100%),[1]; compound 5 μM,83.2 ± 4.1%
same,Percentage 45Ca2+ of Control (Control – 100%),[1]; compound 10 μM,89.3 ± 1.2%
same,Percentage 45Ca2+ of Control (Control – 100%),[1]; compound 50 μM,98.7 ± 8.8%
same,Percentage 45Ca2+ of Control (Control – 100%),[1]; compound 100 μM,132.0 ± 2.9%
"CN1CCc2c(c3cc(F)ccc3n2CCc2n[nH]c(=S)n2C)C1 [Compound IV, 5-[2-(8-Fluoro-2-methyl-1,2,3,4-tetrahydropyrido[4,3-b]indol-5-yl)ethyl]-4-methyl-2,4-dihydro[1,2,4]triazole-3-thione]",Percentage 45Ca2+ of Control (Control – 100%),[1]; compound 0.01 μM,102.0 ± 9.8%
same,Percentage 45Ca2+ of Control (Control – 100%),[1]; compound 0.1 μM,78.7 ± 10.3%
same,Percentage 45Ca2+ of Control (Control – 100%),[1]; compound 0.5 μM,78.7 ± 8.0%
same,Percentage 45Ca2+ of Control (Control – 100%),[1]; compound 1 μM,83.2 ± 10.9%
same,Percentage 45Ca2+ of Control (Control – 100%),[1]; compound 5 μM,94.7 ± 8.5%
same,Percentage 45Ca2+ of Control (Control – 100%),[1]; compound 10 μM,93.4 ± 6.9%
same,Percentage 45Ca2+ of Control (Control – 100%),[1]; compound 50 μM,96.9 ± 6.0%
same,Percentage 45Ca2+ of Control (Control – 100%),[1]; compound 100 μM,87.1 ± 11.5%
same,inhibition of glutamate-induced calcium ion uptake,[1]; concentration of 1 μM,~17%
same,"effect on glutamate-induced calcium ion uptake, in words",[1]; concentration of 0.1–1 μM,can act as an inhibitor
same,"effect on glutamate-induced calcium ion uptake, in words",[1]; concentration of 5–100 μM,had no effect
same,"overall inhibiting activity on calcium ion uptake, in words",[1]; whole concentration range 0.01–100 μM,weak inhibitors of calcium ion uptake
same,mole fraction solubility (x),"[2]; 1-octanol, 293.15 K",2.51 x · 10^4
same,"A, parameter of the correlation equation lnx=A-B/T","[2]; 1-octanol, 293.15–313.15 K",3.65 ± 0.15
same,"B, parameter of the correlation equation lnx=A-B/T","[2]; 1-octanol, 293.15–313.15 K",3501 ± 46
same,mole fraction solubility (x),"[2]; 1-octanol, 298.15 K",3.01 x · 10^4
same,"ΔGsol0, standard molar dissolution Gibbs energy","[2]; 1-octanol, 298.15 K",4.8 kcal/mol
same,"ΔHsol0, standard molar dissolution enthalpy","[2]; 1-octanol, 298.15 K",6.96 kcal/mol
same,"ΔSsol0, standard molar dissolution entropy","[2]; 1-octanol, 298.15 K",30.2 J/mol⋅K
same,mole fraction solubility (x),"[2]; 1-octanol, 303.15 K",3.68 x · 10^4
same,mole fraction solubility (x),"[2]; 1-octanol, 308.15 K",4.39 x · 10^4
same,mole fraction solubility (x),"[2]; 1-octanol, 313.15 K",5.30 x · 10^4
same,mole fraction solubility (x),"[2]; Buffer pH 7.4, 293.15 K",8.34 x · 10^6
same,"A, parameter of the correlation equation lnx=A-B/T","[2]; Buffer pH 7.4, 293.15–313.15 K",−2.96 ± 0.09
same,"B, parameter of the correlation equation lnx=A-B/T","[2]; Buffer pH 7.4, 293.15–313.15 K",2558 ± 27
same,mole fraction solubility (x),"[2]; Buffer pH 7.4, 298.15 K",9.60 x · 10^6
same,"ΔGsol0, standard molar dissolution Gibbs energy","[2]; Buffer pH 7.4, 298.15 K",6.84 kcal/mol
same,"ΔHsol0, standard molar dissolution enthalpy","[2]; Buffer pH 7.4, 298.15 K",5.09 kcal/mol
same,"ΔSsol0, standard molar dissolution entropy","[2]; Buffer pH 7.4, 298.15 K",-24.6 J/mol⋅K
same,mole fraction solubility (x),"[2]; Buffer pH 7.4, 303.15 K",11.11 x · 10^6
same,mole fraction solubility (x),"[2]; Buffer pH 7.4, 308.15 K",12.66 x · 10^6
same,mole fraction solubility (x),"[2]; Buffer pH 7.4, 313.15 K",14.60 x · 10^6
same,mole fraction solubility (x),"[2]; Hexane, 293.15 K",3.85 x · 10^4
same,"A, parameter of the correlation equation lnx=A-B/T","[2]; Hexane, 293.15–313.15 K",1.09 ± 0.1
same,"B, parameter of the correlation equation lnx=A-B/T","[2]; Hexane, 293.15–313.15 K",2624 ± 30
same,mole fraction solubility (x),"[2]; Hexane, 298.15 K",4.47 x · 10^4
same,"ΔGsol0, standard molar dissolution Gibbs energy","[2]; Hexane, 298.15 K",4.57 kcal/mol
same,"ΔHsol0, standard molar dissolution enthalpy","[2]; Hexane, 298.15 K",5.21 kcal/mol
same,"ΔSsol0, standard molar dissolution entropy","[2]; Hexane, 298.15 K",9.1 J/mol⋅K
same,mole fraction solubility (x),"[2]; Hexane, 303.15 K",5.11 x · 10^4
same,mole fraction solubility (x),"[2]; Hexane, 308.15 K",5.96 x · 10^4
same,mole fraction solubility (x),"[2]; Hexane, 313.15 K",6.81 x · 10^4
